Experimental data reported in patent US20060252800A1, “Anti-leishmania agent” (priority 2003, published 2006).

Test system: Leishmania (L. major)
Experiment: Leishmania protozoa proliferation inhibition assay
Type: cell-based
Settings: for OD level (number of viable Leishmania protozoa): 48 hours at 27° C., absorbance 450 nm minus 630 nm; for IC50: calculated from the graphs of FIGS. 1 to 4 (concentration vs number of viable leishmania protozoa), read-out: Concentration inhibiting 50% leishmania proliferation
Protocol: After dissolving each of the obtained compounds in dimethylsulfoxide (hereinafter referred to as DMSO), the resultant was diluted by 9 steps in Medium 199 medium (Invitrogen) to the indicated concentration, filtrated with a membrane filter, and each of the filtration was made as a sample solution. […] By keeping the solution at 27° C., incubation was performed under 5% CO2, for 48 hours. Then, TetraColor ONE (tradename: Seikagaku Corporation) reagent was added thereto and further incubated for 6 hours. Then, the absorbance at a wavelength of 450 nm was measured for the 96-well microtiter plate with a microplate reader, the wave length of 630 nm was made as reference wave length, and in order to exclude background effect, the absorbance at 630 nm was excluded from the one at 450 nm, and the OD level was calculated as a level to indicate the number of viable Leishmania protozoa. The assay was performed by three wells at a time for each concentration of each sample, and the mean level was made as OD level. […] Amphotericin B was used as positive control. […] Inhibiting effect against […] protozoa for each sample was similar or more compared with that of Amtephotericin B.

[1] = Table 3, sample concentration 0.001 mg/ml
[2] = Table 3, sample concentration 0.002165 mg/ml
[3] = Table 3, sample concentration 0.0072171 mg/ml
[4] = Table 3, sample concentration 0.02406 mg/ml
[5] = Table 3, sample concentration 0.08019 mg/ml
[6] = Table 3, sample concentration 0.2673 mg/ml
[7] = Table 3, sample concentration 0.891 mg/ml
[8] = Table 3, sample concentration 2.97 mg/ml
[9] = Table 3, sample concentration 9.9 mg/ml
[10] = Table 3, sample concentration 33 mg/ml
[11] = Table 1, sample concentration 0.001 mg/ml
[12] = Table 1, sample concentration 0.016384 mg/ml
[13] = Table 1, sample concentration 0.04096 mg/ml
[14] = Table 1, sample concentration 0.1024 mg/ml
[15] = Table 1, sample concentration 0.256 mg/ml
[16] = Table 1, sample concentration 0.64 mg/ml
[17] = Table 1, sample concentration 1.6 mg/ml
[18] = Table 1, sample concentration 4 mg/ml
[19] = Table 1, sample concentration 10 mg/ml
[20] = Table 1, sample concentration 25 mg/ml, mean of three wells
[21] = Table 2, sample concentration 0.0001 mg/ml
[22] = Table 2, sample concentration 0.0007 mg/ml
[23] = Table 2, sample concentration 0.002 mg/ml
[24] = Table 2, sample concentration 0.008 mg/ml
[25] = Table 2, sample concentration 0.025 mg/ml
[26] = Table 2, sample concentration 0.084 mg/ml
[27] = Table 2, sample concentration 0.279 mg/ml
[28] = Table 2, sample concentration 0.93 mg/ml
[29] = Table 2, sample concentration 3.1 mg/ml
[30] = Table 2, sample concentration 2E−04 mg/ml

| Compound | OD level (number of viable Leishmania protozoa) [1] | OD level (number of viable Leishmania protozoa) [2] | OD level (number of viable Leishmania protozoa) [3] | OD level (number of viable Leishmania protozoa) [4] | OD level (number of viable Leishmania protozoa) [5] | OD level (number of viable Leishmania protozoa) [6] | OD level (number of viable Leishmania protozoa) [7] | OD level (number of viable Leishmania protozoa) [8] | OD level (number of viable Leishmania protozoa) [9] | OD level (number of viable Leishmania protozoa) [10] | IC50 [nM] | OD level (number of viable Leishmania protozoa) [21] | OD level (number of viable Leishmania protozoa) [22] | OD level (number of viable Leishmania protozoa) [23] | OD level (number of viable Leishmania protozoa) [24] | OD level (number of viable Leishmania protozoa) [25] | OD level (number of viable Leishmania protozoa) [26] | OD level (number of viable Leishmania protozoa) [27] | OD level (number of viable Leishmania protozoa) [28] | OD level (number of viable Leishmania protozoa) [29] | other results |
| --- | --- | --- | --- | --- | --- | --- | --- | --- | --- | --- | --- | --- | --- | --- | --- | --- | --- | --- | --- | --- | --- |
| CN1C(=c2sc(=Cc3cccc[n+]3C)n(CC3CCCO3)c2=O)Sc2ccc3ccccc3c21.Cc1ccc(S(=O)(=O)[O-])cc1 (centres unmarked) [IV (l), 2-[{5-(3-methyl-2(3H)-benzobenzo[e]thiazolilidene)-4-oxo-3-(2-tetrahydrofuranyl)methyl-2-thiazolidinylidene}methyl]-1-methylpyridinium=p-toluenesulfonate] | 0.357 | 0.346 | 0.358 | 0.357 | 0.377 | 0.391 | 0.178 | 0.080 | 0.035 | 0.029 | 1300 | – | – | – | – | – | – | – | – | – | – |
| CCN1C(=O)CS/C1=C\c1sc2ccccc2[n+]1CC [V (b), 2-[(4-oxo-3-ethyl-2-thiazolidinylidene)methyl]-3-ethylbenzothiazolium=p-toluenesulfonate] | – | – | – | – | – | – | – | – | – | – | 1200 | – | – | – | – | – | – | – | – | – | OD level (number of viable Leishmania protozoa) [11]: 0.441; OD level (number of viable Leishmania protozoa) [12]: 0.458; OD level (number of viable Leishmania protozoa) [13]: 0.520; OD level (number of viable Leishmania protozoa) [14]: 0.533; OD level (number of viable Leishmania protozoa) [15]: 0.363; OD level (number of viable Leishmania protozoa) [16]: 0.145; OD level (number of viable Leishmania protozoa) [17]: 0.047; OD level (number of viable Leishmania protozoa) [18]: 0.040; OD level (number of viable Leishmania protozoa) [19]: 0.042; OD level (number of viable Leishmania protozoa) [20]: 0.056 |
| C=CCn1c(=Cc2cccc[n+]2C)sc(=C2Sc3ccc(Cl)cc3N2C)c1=O.Cc1ccc(S(=O)(=O)[O-])cc1 [IV (h), 2-[{5-(5-chloro-3-methyl-2(3H)-benzothiazolylidene)-4-oxo-3-(2-propenyl)-2-thiazolidinylidene}methyl]-1-methylpyridinium=p-toluenesulfonate] | 0.352 | 0.368 | 0.375 | 0.423 | 0.277 | 0.140 | 0.079 | 0.039 | 0.029 | 0.034 | 270 | – | – | – | – | – | – | – | – | – | – |
| CCn1c(=Cc2cc[n+](C)c3ccccc23)sc(=C2Sc3ccccc3N2C)c1=O.Cc1ccc(S(=O)(=O)[O-])cc1 [IV (b), 4-[{5-(3-methyl-2(3H)-benzothiazolylidene)-4-oxo-3-ethyl-2-thiazolidinylidene}methyl]-1-methylquinolium=p-toluene sulfonate] | – | – | – | – | – | – | – | – | – | – | – | 0.361 | 0.354 | 0.362 | 0.380 | 0.409 | 0.211 | 0.102 | 0.044 | 0.037 | OD level (number of viable Leishmania protozoa) [30]: 0.351 |
| CCn1c(=Cc2sc3ccc4ccccc4c3[n+]2C)sc(=C2Sc3ccccc3N2C)c1=O.Cc1ccc(S(=O)(=O)[O-])cc1 [IV (g), 2-[{5-(3-methyl-2(3H)-benzothiazolylidene)-4-oxo-3-ethyl-2-thiazolidinylidene}methyl]-3-methylbenzo[e]benzothiazolium=p-toluenesulfonate] | – | – | – | – | – | – | – | – | – | – | 12 | 0.352 | 0.368 | 0.253 | 0.121 | 0.055 | 0.032 | 0.030 | 0.031 | 0.029 | OD level (number of viable Leishmania protozoa) [30]: 0.448 |
| CN1/C(=c2\s/c(=C\c3cccc[n+]3C)n(Cc3ccccc3)c2=O)Sc2ccccc21.Cc1ccc(S(=O)(=O)[O-])cc1 [I (a), 2-[{5-(3-methyl-2(3H)-benzothiazolylidene)-4-oxo-3-benzyl-2-thiazolidinylidene}methyl]-1-methylpyridinium=p-toluenesulfonate] | – | – | – | – | – | – | – | – | – | – | 410 | 0.356 | 0.361 | 0.383 | 0.469 | 0.172 | 0.088 | 0.043 | 0.034 | 0.035 | OD level (number of viable Leishmania protozoa) [30]: 0.356 |
| CCn1c(=Cc2ccc3ccccc3[n+]2C)sc(=C2Sc3ccccc3N2C)c1=O.[I-] [IV (c), 2-[{5-(3-methyl-2(3H)-benzothiazolylidene)-4-oxo-3-ethyl-2-thiazolidinylidene}methyl]-1-methylquinolinium=iodide] | – | – | – | – | – | – | – | – | – | – | 820 | – | – | – | – | – | – | – | – | – | OD level (number of viable Leishmania protozoa) [11]: 0.472; OD level (number of viable Leishmania protozoa) [12]: 0.470; OD level (number of viable Leishmania protozoa) [13]: 0.474; OD level (number of viable Leishmania protozoa) [14]: 0.496; OD level (number of viable Leishmania protozoa) [15]: 0.398; OD level (number of viable Leishmania protozoa) [16]: 0.158; OD level (number of viable Leishmania protozoa) [17]: 0.117; OD level (number of viable Leishmania protozoa) [18]: 0.069; OD level (number of viable Leishmania protozoa) [19]: 0.032; OD level (number of viable Leishmania protozoa) [20]: 0.032 |
| CCn1c(=Cc2sc3ccccc3[n+]2C)sc(=C2C=Cc3ccccc3N2C)c1=O.Cc1ccc(S(=O)(=O)[O-])cc1 [IV (d)] | 0.346 | 0.357 | 0.339 | 0.341 | 0.359 | 0.348 | 0.365 | 0.395 | 0.344 | 0.035 | – | – | – | – | – | – | – | – | – | – | – |
